Each block holds one compound with its values, some of them ahead of it.
Assay: solvent given as SMILES

Structure (SMILES): N#Cc1ccc(-c2ccc(C3=CCCCC3)s2)s1
emission maximum (in C1CCOC1): 441 nm
emission maximum (in CC#N): 448 nm
emission maximum (in CCCCCC): 427 nm
emission maximum (in CCO): 436 nm
emission maximum (in OCCOCCO): 449 nm
emission maximum (in c1ccncc1): 448 nm

Structure (SMILES): CCCCN(CCCC)c1ccc(C#Cc2cc(C#Cc3ccc(C#N)cc3)c(C#Cc3ccc(C#N)cc3)cc2C#Cc2ccc(N(CCCC)CCCC)cc2)cc1
emission maximum (in ClCCl): 563 nm
emission maximum (in c1ccccc1): 508 nm

Structure (SMILES): CN(C)c1ccc2nc(/C=C/c3ccccc3)c(=O)oc2c1
emission maximum (in C1CCCCC1): 488 nm
emission maximum (in C1COCCO1): 533 nm
emission maximum (in CC#N): 567 nm
emission maximum (in CC(C)=O): 557 nm
emission maximum (in CCCCCCC): 485 nm
emission maximum (in CCO): 574 nm
emission maximum (in CCOC(C)=O): 541 nm
emission maximum (in CN(C)C=O): 571 nm
emission maximum (in CS(C)=O): 581 nm
emission maximum (in Cc1ccccc1): 523 nm
emission maximum (in ClC(Cl)Cl): 542 nm
emission maximum (in ClCCl): 547 nm

Structure (SMILES): CC(C)(C)c1ccc(N2c3ccc(C(C)(C)C)cc3B3c4cc(C(C)(C)C)ccc4N(c4ccc(C(C)(C)C)cc4)c4cc(-n5c6ccc(C(C)(C)C)cc6c6cc(C(C)(C)C)ccc65)cc2c43)cc1
emission maximum (in Cc1ccccc1): 470 nm

Structure (SMILES): C(#Cc1cc2ccc3cc(C#Cc4ccccc4)cc4ccc(c1)c2c34)c1ccccc1
emission maximum (in Cc1ccccc1): 418 nm

Structure (SMILES): COOCc1noc(-c2ccccc2)c1Br
emission maximum (in C1CCCCC1): 345 nm

Structure (SMILES): CC(C)(C)c1ccc2c(c1)sc1[n+]2[B-](F)(F)n2c(c3cccc4c(Br)ccc2c43)=N1
emission maximum (in C1CCOC1): 520 nm
emission maximum (in CC#N): 519 nm
emission maximum (in CCCCCC): 516 nm
emission maximum (in Cc1ccccc1): 524 nm
emission maximum (in ClCCl): 552 nm

Structure (SMILES): O=S1(=O)c2ccc(-c3ccc(N(c4ccccc4)c4ccccc4)cc3)cc2C2(c3ccccc3-c3ccccc32)c2cc(-c3ccc(N(c4ccccc4)c4ccccc4)cc3)ccc21
emission maximum (in CC(C)=O): 477.11 nm
emission maximum (in CCCCCC): 398.37 nm
emission maximum (in CN(C)C=O): 491.2 nm
emission maximum (in Cc1ccccc1): 425.46 nm
emission maximum (in ClCCl): 465 nm

Structure (SMILES): c1ccc(-c2oc(-c3ccccc3)c3ccccc23)cc1
emission maximum (in C1CCCCC1): 448 nm
emission maximum (in C1CCOC1): 451 nm
emission maximum (in CC#N): 452 nm
emission maximum (in CCO): 451 nm
emission maximum (in CN(C)C=O): 458 nm
emission maximum (in CS(C)=O): 460 nm
emission maximum (in Cc1ccccc1): 454 nm

Structure (SMILES): CC(C)c1cc(C(C)C)c(B2c3cc(N4c5ccccc5C(C)(C)c5ccccc54)ccc3N(c3ccccc3)c3ccc(N4c5ccccc5C(C)(C)c5ccccc54)cc32)c(C(C)C)c1
emission maximum (in C1CCOC1): 485.71 nm
emission maximum (in CCOC(C)=O): 481.97 nm
emission maximum (in Cc1ccccc1): 469.39 nm
emission maximum (in ClCCl): 494.56 nm
emission maximum (in c1cc(-c2cccc(-n3c4ccccc4c4ccccc43)c2)cc(-n2c3ccccc3c3ccccc32)c1): 469 nm

Structure (SMILES): COCCOCCOCCOc1ccc(OCCOCCOCCOC)c(C=O)c1
emission maximum (in CC(C)(C)O): 444 nm
emission maximum (in CC(C)CO): 453 nm
emission maximum (in CC(C)O): 455 nm
emission maximum (in CCCCO): 458 nm
emission maximum (in CCCO): 459 nm
emission maximum (in CCO): 462 nm
emission maximum (in CN(C)C=O): 423 nm
emission maximum (in CNC=O): 458 nm
emission maximum (in CO): 468 nm
emission maximum (in NC=O): 463 nm
emission maximum (in O): 485 nm

Structure (SMILES): COc1cc2c(cc1-c1ccc(C=O)cc1)Cc1c3c(c4c(c1-2)-c1cc(OC)c(-c2ccc(C=O)cc2)cc1C4)C(=O)N(CCC(C)C)C3=O
emission maximum (in C1CCOC1): 462 nm

Structure (SMILES): CC1=C(c2cccs2)C(C)=[N+]2C1=C(c1ccccc1)c1c(C)c(-c3cccs3)c(C)n1[B-]2(F)F
emission maximum (in CO): 610 nm
emission maximum (in Cc1ccccc1): 609 nm
emission maximum (in ClCCl): 609 nm

Structure (SMILES): CN(C)c1ccc(/C=C/c2nc3ccc(N(C)C)cc3oc2=O)cc1
emission maximum (in C1CCCCC1): 521 nm
emission maximum (in C1COCCO1): 581 nm
emission maximum (in CC#N): 650 nm
emission maximum (in CC(C)=O): 626 nm
emission maximum (in CC(O)CO): 649.5 nm
emission maximum (in CCCCCCC): 519 nm
emission maximum (in CCO): 666 nm
emission maximum (in CCOC(C)=O): 587 nm
emission maximum (in CN(C)C=O): 650 nm
emission maximum (in CS(C)=O): 666 nm
emission maximum (in Cc1ccccc1): 567 nm
emission maximum (in ClC(Cl)Cl): 627 nm
emission maximum (in ClCCl): 619 nm
emission maximum (in OCC(O)CO): 659 nm

Structure (SMILES): CCN1c2ccc(/C=N/Nc3ccccn3)cc2Sc2cc(-c3ccc(OC)cc3)ccc21
emission maximum (in C1CCOC1): 491 nm
emission maximum (in CS(C)=O): 503 nm
emission maximum (in Cc1ccccc1): 484 nm
emission maximum (in ClCCl): 497 nm

Structure (SMILES): Cc1ccc2nc3c(=O)[nH]c(=O)[nH]c3nc2c1
emission maximum (in CC#N): 426 nm
emission maximum (in ClCCCl): 425 nm

Structure (SMILES): CNc1cccc2c1C(=O)c1ccccc1C2=O
emission maximum (in C1CCC2CCCCC2C1): 565 nm
emission maximum (in C1CCCCC1): 563 nm
emission maximum (in CC1CCCCC1): 565 nm
emission maximum (in CC#N): 617 nm
emission maximum (in CCC(C)CC): 562 nm
emission maximum (in CCCCCC): 560 nm
emission maximum (in CCOC(C)=O): 600 nm

Structure (SMILES): COc1ccc(-c2ccc(-c3ccc(OC)cc3)c3nc(-c4ccccc4)c(-c4ccccc4)nc23)cc1
emission maximum (in C1CCOC1): 504 nm
emission maximum (in CC#N): 512 nm
emission maximum (in CCCCCC): 477 nm
emission maximum (in CN(C)C=O): 514 nm
emission maximum (in Cc1ccccc1): 492 nm
emission maximum (in ClC(Cl)Cl): 502 nm

More lines, now with the values ahead:

emission maximum (in ClC(Cl)Cl): 471 nm
Structure (SMILES): Cc1ccc(C2=Cc3c4ccccc4cc[n+]3[B-](F)(F)O2)cc1

emission maximum (in ClCCl): 427 nm
Structure (SMILES): c1ccc2cc(-c3c4ccccc4c(-c4ccc(-c5ccc(-n6c7ccccc7c7ccccc76)cc5)cc4)c4ccccc34)ccc2c1

emission maximum (in CCO): 665 nm
emission maximum (in CO): 659 nm
emission maximum (in CS(C)=O): 665 nm
emission maximum (in O): 658 nm
Structure (SMILES): CN1/C(=C/C=C(/C=C/C2=[N+](C)c3ccccc3C2(C)C)c2ccc(C(F)(F)F)cc2)C(C)(C)c2ccccc21

emission maximum (in ClCCl): 426 nm
Structure (SMILES): CC(C)(C)c1ccc(-c2nc3c4ccccc4c4ccccc4c3n2-c2ccc(-c3ccc(N(c4ccccc4)c4ccccc4)cc3)cc2)cc1

emission maximum (in ClCCl): 600 nm
Structure (SMILES): CC1=C(C#Cc2ccc([Si](c3ccccc3)(c3ccccc3)c3ccccc3)cc2)C(C)=[N+]2C1=C(c1ccccc1)c1c(C)c(C#Cc3ccc([Si](c4ccccc4)(c4ccccc4)c4ccccc4)cc3)c(C)n1[B-]2(F)F

emission maximum (in ClCCl): 531 nm
Structure (SMILES): [O-][n+]1c(/C=C/c2ccc(/C=C/c3ccccc3)cc2)nc(N2CCOCC2)c2c1CCCC2

emission maximum (in CC#N): 397 nm
Structure (SMILES): c1ccc(-c2nc3cc4c(cc3n2-c2ccccc2)nc(-c2ccccc2)n4-c2ccccc2)cc1

emission maximum (in ClCCl): 385 nm
Structure (SMILES): C(=C\c1ccc(-c2ccccc2)cc1)/c1ccc(Oc2ccc3ccccc3c2-c2c(Oc3ccc(/C=C/c4ccc(-c5ccccc5)cc4)cc3)ccc3ccccc23)cc1

emission maximum (in ClCCl): 783 nm
Structure (SMILES): Cc1c2cc3c(-c4ccccc4)c4c(c(-c5ccccc5)c3cc2c2n1[B-](F)(F)[n+]1c(C)c3cc5c(-c6ccccc6)c6c7cccc8cccc(c6c(-c6ccccc6)c5cc3c1=C2c1ccccc1)c87)-c1cccc2cccc-4c12

emission maximum (in ClC(Cl)Cl): 705 nm
Structure (SMILES): COc1ccc(N(c2ccc(OC)cc2)c2ccc(-c3ccc(-c4ccc(-c5cccs5)c5nsnc45)s3)cc2)cc1

emission maximum (in ClC(Cl)Cl): 403 nm
Structure (SMILES): Cc1ccc(C#Cc2ccc(C#Cc3ccc(C#Cc4ccccc4C#N)cc3C#N)cc2C#N)cc1
